From publication PMC5218480 (PLoS ONE, 2017) come the findings set out here.

In the test the test system is MV-4-11 cells. Kind of test: Gene expression microarray analysis (Affymetrix PrimeView) and GSEA. Set-up: RFU PODN (11730768_x_at) / Fold change /veh PODN (11730768_x_at) / RFU LINC00158 (11744669_a_at) / Fold change /veh LINC00158 (11744669_a_at) / RFU DUSP10 (11751237_a_at) / Fold change /veh DUSP10 (11751237_a_at) / RFU ID3 (11757404_x_at) / Fold change /veh ID3 (11757404_x_at) / RFU PLEKHG5 (11737974_s_at) / Fold change /veh PLEKHG5 (11737974_s_at) / RFU LRRC4B (11730491_at) / Fold change /veh LRRC4B (11730491_at) / RFU GIMAP4 (11747438_a_at) / Fold change /veh GIMAP4 (11747438_a_at) / RFU KRT8 (11758183_x_at) / Fold change /veh KRT8 (11758183_x_at) / RFU CNN1 (11734310_a_at) / Fold change /veh CNN1 (11734310_a_at) / RFU VPS37D (11726825_at) / Fold change /veh VPS37D (11726825_at) / RFU C10orf10 (11716522_x_at) / Fold change /veh C10orf10 (11716522_x_at) / RFU KIR2DL2 /// KIR2DL4 /// KIR2DL5A /// KIR2DL5B /// KIR2DS1 /// KIR2DS2 /// KIR2DS3 /// KIR2DS4 /// KIR3DL3 /// KIR3DL3 /// KIR3DS1 (11738374_at) / Fold change /veh KIR2DL2 /// KIR2DL4 /// KIR2DL5A /// KIR2DL5B /// KIR2DS1 /// KIR2DS2 /// KIR2DS3 /// KIR2DS4 /// KIR3DL3 /// KIR3DL3 /// KIR3DS1 (11738374_at) / RFU C1QL1 (11718748_at) / Fold change /veh C1QL1 (11718748_at) / RFU TMPRSS4 (11747572_a_at) / Fold change /veh TMPRSS4 (11747572_a_at) / RFU HAMP (11756126_x_at) / Fold change /veh HAMP (11756126_x_at) / RFU RNFT2 (11725882_a_at) / Fold change /veh RNFT2 (11725882_a_at) / RFU NR4A2 (11747474_a_at) / Fold change /veh NR4A2 (11747474_a_at) / RFU ABCC12 (11746883_a_at) / Fold change /veh ABCC12 (11746883_a_at) / RFU TMEM136 (11760407_x_at) / Fold change /veh TMEM136 (11760407_x_at) / RFU CLDN22 /// WWC2 (11732394_at) / Fold change /veh CLDN22 /// WWC2 (11732394_at) / RFU HLA-DPB1 (11760878_x_at) / Fold change /veh HLA-DPB1 (11760878_x_at) / RFU SPINT1 (11716480_a_at) / Fold change /veh SPINT1 (11716480_a_at) / RFU GAP43 (11754022_s_at) / Fold change /veh GAP43 (11754022_s_at) / RFU A4GNT (11735810_at) / Fold change /veh A4GNT (11735810_at) / RFU PRB3 (11715151_x_at) / Fold change /veh PRB3 (11715151_x_at) / RFU TUBB4B (11761932_at) / Fold change /veh TUBB4B (11761932_at) / RFU CAPN14 (11732068_a_at) / Fold change /veh CAPN14 (11732068_a_at) / RFU TMCC2 (11721928_a_at) / Fold change /veh TMCC2 (11721928_a_at) / RFU IRGQ (11745062_a_at) / Fold change /veh IRGQ (11745062_a_at) / RFU FAM174B (11720279_a_at) / Fold change /veh FAM174B (11720279_a_at) / RFU TMPRSS4 (11748680_a_at) / Fold change /veh TMPRSS4 (11748680_a_at) / RFU FAM212B (11763350_a_at) / Fold change /veh FAM212B (11763350_a_at) / RFU PLEKHG5 (11743358_a_at) / Fold change /veh PLEKHG5 (11743358_a_at) / RFU ZSCAN30 (11745921_a_at) / Fold change /veh ZSCAN30 (11745921_a_at) / RFU CMKLR1 (11741424_a_at) / Fold change /veh CMKLR1 (11741424_a_at) / RFU LOC101060620 /// MAPK8IP1 (11723275_at) / Fold change /veh LOC101060620 /// MAPK8IP1 (11723275_at) / RFU SPTSSB (11747773_x_at) / Fold change /veh SPTSSB (11747773_x_at) / RFU PRSS12 (11739890_at) / Fold change /veh PRSS12 (11739890_at) / RFU BIN1 (11741810_x_at) / Fold change /veh BIN1 (11741810_x_at) / RFU WNT11 (11732464_a_at) / Fold change /veh WNT11 (11732464_a_at) / RFU C10orf10 (11716521_a_at) / Fold change /veh C10orf10 (11716521_a_at) / RFU C5orf56 (11738089_at) / Fold change /veh C5orf56 (11738089_at) / RFU CYB561 (11721691_x_at) / Fold change /veh CYB561 (11721691_x_at) / RFU ANKRD19P (11752326_a_at) / Fold change /veh ANKRD19P (11752326_a_at) / RFU OR2T12 /// OR2T33 /// OR2T8 (11738714_s_at) / Fold change /veh OR2T12 /// OR2T33 /// OR2T8 (11738714_s_at) / RFU VCAN (11748164_a_at) / Fold change /veh VCAN (11748164_a_at) / RFU JSRP1 (11732532_at) / Fold change /veh JSRP1 (11732532_at) / RFU KRTAP10-11 (11738290_x_at) / Fold change /veh KRTAP10-11 (11738290_x_at) / RFU MYO3A (11730013_a_at) / Fold change /veh MYO3A (11730013_a_at) / RFU EBF3 (11725865_a_at) / Fold change /veh EBF3 (11725865_a_at) / RFU CAMK2N1 (11719241_x_at) / Fold change /veh CAMK2N1 (11719241_x_at) / RFU C5orf56 (11738088_a_at) / Fold change /veh C5orf56 (11738088_a_at) / RFU OLFML3 (11715873_a_at) / Fold change /veh OLFML3 (11715873_a_at) / RFU LOC100653217 /// NTM (11731650_a_at) / Fold change /veh LOC100653217 /// NTM (11731650_a_at) / RFU MAPK11 (11762145_a_at) / Fold change /veh MAPK11 (11762145_a_at) / RFU FIZ1 (11724087_x_at) / Fold change /veh FIZ1 (11724087_x_at) / RFU OASL (11726364_x_at) / Fold change /veh OASL (11726364_x_at) / RFU SOX15 (11748057_x_at) / Fold change /veh SOX15 (11748057_x_at) / RFU CD79A (11719716_a_at) / Fold change /veh CD79A (11719716_a_at) / RFU HIST1H1D (11736915_at) / Fold change /veh HIST1H1D (11736915_at) / RFU CASKIN2 (11723855_a_at) / Fold change /veh CASKIN2 (11723855_a_at) / RFU LOC730098 (11760151_x_at) / Fold change /veh LOC730098 (11760151_x_at) / RFU OR4N2 (11742367_at) / Fold change /veh OR4N2 (11742367_at) / RFU PRRT2 (11749266_a_at) / Fold change /veh PRRT2 (11749266_a_at) / RFU SNX32 (11753110_a_at) / Fold change /veh SNX32 (11753110_a_at) / RFU CDHR5 (11726645_a_at) / Fold change /veh CDHR5 (11726645_a_at) / RFU RCAN1 (11760418_a_at) / Fold change /veh RCAN1 (11760418_a_at) / RFU FAM167A (11723789_a_at) / Fold change /veh FAM167A (11723789_a_at) / RFU FAM26E (11764081_at) / Fold change /veh FAM26E (11764081_at) / RFU ISYNA1 (11749810_s_at) / Fold change /veh ISYNA1 (11749810_s_at) / RFU ACY1 (11761880_at) / Fold change /veh ACY1 (11761880_at) / RFU 11764098_at / Fold change /veh 11764098_at / RFU SAMD14 (11745864_x_at) / Fold change /veh SAMD14 (11745864_x_at) / RFU NPB (11741838_a_at) / Fold change /veh NPB (11741838_a_at) / RFU TMPRSS6 (11731388_a_at) / Fold change /veh TMPRSS6 (11731388_a_at) / RFU KRTAP10-2 (11738614_at) / Fold change /veh KRTAP10-2 (11738614_at) / RFU ARHGAP8 /// PRR5-ARHGAP8 (11727945_x_at) / Fold change /veh ARHGAP8 /// PRR5-ARHGAP8 (11727945_x_at) / RFU KRTAP5-7 /// NADSYN1 (11734609_at) / Fold change /veh KRTAP5-7 /// NADSYN1 (11734609_at) / RFU RASL12 (11751679_a_at) / Fold change /veh RASL12 (11751679_a_at) / RFU CDKN2B (11736163_a_at) / Fold change /veh CDKN2B (11736163_a_at) / RFU PRF1 (11729649_at) / Fold change /veh PRF1 (11729649_at) / RFU, ZNF638 /// ZNF638-IT1 / Fold change vs veh, ZNF638 /// ZNF638-IT1 / RFU, PANK3 / Fold change vs veh, PANK3 / RFU, SH3YL1 / Fold change vs veh, SH3YL1 / RFU, ZEB2 / Fold change vs veh, ZEB2 / RFU, NRIP1 / Fold change vs veh, NRIP1 / RFU, PTTG1IP / Fold change vs veh, PTTG1IP / RFU, CAPN2 / Fold change vs veh, CAPN2 / RFU, MED14 / Fold change vs veh, MED14 / RFU, SNORA58 / Fold change vs veh, SNORA58 / RFU, C1orf63 / Fold change vs veh, C1orf63 / RFU, LRRFIP1 / Fold change vs veh, LRRFIP1 / RFU, NDUFAF7 / Fold change vs veh, NDUFAF7 / RFU, SLC12A2 / Fold change vs veh, SLC12A2 / RFU, IBTK / Fold change vs veh, IBTK / RFU, ESF1 / Fold change vs veh, ESF1 / Fold change vs veh, TMEM50B / RFU, TAOK1 / Fold change vs veh, TAOK1 / RFU, ACBD3 / Fold change vs veh, ACBD3 / RFU, TMA16 / Fold change vs veh, TMA16 / RFU, RWDD3 / Fold change vs veh, RWDD3 / RFU, BCAT1 / Fold change vs veh, BCAT1 / RFU, EDEM3 / Fold change vs veh, EDEM3 / RFU, TMEM33 / Fold change vs veh, TMEM33 / RFU, WDR75 / Fold change vs veh, WDR75 / RFU, AHCTF1 / Fold change vs veh, AHCTF1 / RFU, TFRC / Fold change vs veh, TFRC / RFU, ZDHHC17 / Fold change vs veh, ZDHHC17 / RFU, NOM1 / Fold change vs veh, NOM1 / RFU, ARL8B / Fold change vs veh, ARL8B / RFU, ZBTB11 / Fold change vs veh, ZBTB11 / RFU, TAMM41 / Fold change vs veh, TAMM41 / RFU, KIAA1704 /// LOC100996395 / Fold change vs veh, KIAA1704 /// LOC100996395 / RFU, ING1 / Fold change vs veh, ING1 / RFU, TRMT61B / Fold change vs veh, TRMT61B / RFU, FUBP3 / Fold change vs veh, FUBP3 / RFU, TP53 / Fold change vs veh, TP53 / RFU, TNKS2 / Fold change vs veh, TNKS2 / RFU, ZFP14 / Fold change vs veh, ZFP14 / RFU, ACTR2 / Fold change vs veh, ACTR2 / RFU, PPP3R1 / Fold change vs veh, PPP3R1 / RFU, PIK3R1 / Fold change vs veh, PIK3R1 / RFU, HNRNPA1 / Fold change vs veh, HNRNPA1 / RFU, RNF170 / Fold change vs veh, RNF170 / RFU, ZNF28 / Fold change vs veh, ZNF28 / RFU, RNGTT / Fold change vs veh, RNGTT / RFU, OGT / Fold change vs veh, OGT / RFU, BRD1 / Fold change vs veh, BRD1 / RFU, MARS / Fold change vs veh, MARS / RFU, ZNF655 / Fold change vs veh, ZNF655 / RFU, FAHD1 / Fold change vs veh, FAHD1 / RFU, BDP1 / Fold change vs veh, BDP1 / RFU, LRRCC1 / Fold change vs veh, LRRCC1 / RFU, ARID1A / Fold change vs veh, ARID1A / RFU, ZNF146 / Fold change vs veh, ZNF146 / RFU, ZNF330 / Fold change vs veh, ZNF330 / RFU, GPN3 / Fold change vs veh, GPN3 / RFU, C9orf123 / Fold change vs veh, C9orf123 / RFU, N4BP2L2 / Fold change vs veh, N4BP2L2 / RFU, ARFIP1 / Fold change vs veh, ARFIP1 / RFU, FAM179B / Fold change vs veh, FAM179B / RFU, BCL10 / Fold change vs veh, BCL10 / RFU, UHRF1BP1L / Fold change vs veh, UHRF1BP1L / RFU, BET1 / Fold change vs veh, BET1 / RFU, CNOT2 / Fold change vs veh, CNOT2 / RFU, ZNF268 / Fold change vs veh, ZNF268 / Fold change vs veh, ZNF507 / RFU, DGCR2 / Fold change vs veh, DGCR2 / RFU, WDSUB1 / Fold change vs veh, WDSUB1 / Fold change vs veh, HSP90B1 /// MIR3652 / RFU, ADSS / Fold change vs veh, ADSS / RFU, GK / Fold change vs veh, GK / RFU, ZNF148 / Fold change vs veh, ZNF148 / RFU, TAF9 / Fold change vs veh, TAF9 / RFU, SLC1A5 / Fold change vs veh, SLC1A5 / RFU, SLMO2 / Fold change vs veh, SLMO2 / RFU, ABCC4 / Fold change vs veh, ABCC4 / RFU, LOC101060439 /// RAP1B / Fold change vs veh, LOC101060439 /// RAP1B / RFU, RFX7 / Fold change vs veh, RFX7 / RFU, GTPBP10 / Fold change vs veh, GTPBP10 / RFU, CNEP1R1 / Fold change vs veh, CNEP1R1 / RFU, BIVM-ERCC5 /// ERCC5 / Fold change vs veh, BIVM-ERCC5 /// ERCC5 / RFU, ILF3 / Fold change vs veh, ILF3 / RFU 11762660_at / Fold change /veh 11762660_at / RFU VCAN (11757783_s_at) / Fold change /veh VCAN (11757783_s_at) / RFU DDX43 (11728927_at) / Fold change /veh DDX43 (11728927_at) / RFU KRT8 (11758188_x_at) / Fold change /veh KRT8 (11758188_x_at) / RFU NKD1 (11759106_at) / Fold change /veh NKD1 (11759106_at) / RFU SRD5A1 (11742802_a_at) / Fold change /veh SRD5A1 (11742802_a_at) / RFU TPSAB1 /// TPSB2 (11721975_s_at) / Fold change /veh TPSAB1 /// TPSB2 (11721975_s_at) / RFU GSTM3 (11746129_a_at) / Fold change /veh GSTM3 (11746129_a_at) / RFU IL23R (11737362_x_at) / Fold change /veh IL23R (11737362_x_at) / RFU TMEM51 (11727254_a_at) / Fold change /veh TMEM51 (11727254_a_at) / RFU PIWIL2 (11732686_x_at) / Fold change /veh PIWIL2 (11732686_x_at) / RFU ORM1 (11744905_x_at) / Fold change /veh ORM1 (11744905_x_at) / RFU CCDC152 (11743942_at) / Fold change /veh CCDC152 (11743942_at) / RFU ECM1 (11717891_a_at) / Fold change /veh ECM1 (11717891_a_at) / RFU IL23R (11748794_a_at) / Fold change /veh IL23R (11748794_a_at) / RFU TNFAIP8L3 (11732012_x_at) / Fold change /veh TNFAIP8L3 (11732012_x_at) / RFU MBOAT4 (11741988_at) / Fold change /veh MBOAT4 (11741988_at) / RFU 11764193_at / Fold change /veh 11764193_at / RFU TMEM53 (11763286_at) / Fold change /veh TMEM53 (11763286_at) / RFU MAGEB2 (11727129_at) / Fold change /veh MAGEB2 (11727129_at) / RFU TMEM200A (11744735_a_at) / Fold change /veh TMEM200A (11744735_a_at) / RFU CCDC152 (11751479_a_at) / Fold change /veh CCDC152 (11751479_a_at) / RFU FAM211A (11726209_a_at) / Fold change /veh FAM211A (11726209_a_at) / RFU RGS16 (11746705_a_at) / Fold change /veh RGS16 (11746705_a_at) / RFU VCAN (11755009_s_at) / Fold change /veh VCAN (11755009_s_at) / RFU RHOB (11743442_s_at) / Fold change /veh RHOB (11743442_s_at) / RFU RGS16 (11720943_a_at) / Fold change /veh RGS16 (11720943_a_at) / RFU RGS16 (11720944_at) / Fold change /veh RGS16 (11720944_at) / RFU, VPS4B / Fold change vs veh, VPS4B / RFU, CREB1 / Fold change vs veh, CREB1 / RFU, DNAJC13 / Fold change vs veh, DNAJC13 / RFU, GNAQ / Fold change vs veh, GNAQ / RFU, CDK5R1 / Fold change vs veh, CDK5R1 / RFU, ZRANB3 / Fold change vs veh, ZRANB3 / RFU, CUL4A / Fold change vs veh, CUL4A / RFU, CCNY / Fold change vs veh, CCNY / RFU, UFL1 / Fold change vs veh, UFL1 / RFU, COG3 / Fold change vs veh, COG3 / RFU, DIAPH2 / Fold change vs veh, DIAPH2 / RFU, SKA2 / Fold change vs veh, SKA2 / RFU, AFF3 / Fold change vs veh, AFF3 / RFU, LMF1 / Fold change vs veh, LMF1 / RFU, IPO11 / Fold change vs veh, IPO11 / RFU, DFFB / Fold change vs veh, DFFB / RFU, FOXP1 / Fold change vs veh, FOXP1 / RFU, CARD8 / Fold change vs veh, CARD8 / RFU, STRN3 / Fold change vs veh, STRN3 / RFU, ADK / Fold change vs veh, ADK / RFU, RASSF2 / Fold change vs veh, RASSF2 / RFU, WIPF1 / Fold change vs veh, WIPF1 / RFU, LARP1B / Fold change vs veh, LARP1B / RFU, RASA1 / Fold change vs veh, RASA1 / RFU, RB1 / Fold change vs veh, RB1 / RFU, PPFIA1 / Fold change vs veh, PPFIA1 / RFU, MAT2A / Fold change vs veh, MAT2A / RFU, CCT5 / Fold change vs veh, CCT5 / RFU, WDR92 / Fold change vs veh, WDR92 / RFU, CUX1 / Fold change vs veh, CUX1 / RFU, TTC7A / Fold change vs veh, TTC7A / RFU, TMEM135 / Fold change vs veh, TMEM135 / RFU, DEPTOR / Fold change vs veh, DEPTOR / RFU, CPM / Fold change vs veh, CPM / RFU, DNAJB6 / Fold change vs veh, DNAJB6 / RFU, CACNA2D3 / Fold change vs veh, CACNA2D3 / RFU, DTX4 / Fold change vs veh, DTX4 / RFU, TFCP2 / Fold change vs veh, TFCP2 / RFU, GMCL1 /// GMCL1P1 / Fold change vs veh, GMCL1 /// GMCL1P1 / RFU, AEBP2 / Fold change vs veh, AEBP2 / RFU, SNHG1 /// SNORD22 /// SNORD25 /// SNORD26 /// SNORD27 /// SNORD28 /// SNORD29 /// SNORD31 / Fold change vs veh, SNHG1 /// SNORD22 /// SNORD25 /// SNORD26 /// SNORD27 /// SNORD28 /// SNORD29 /// SNORD31 / Fold change (Aza/veh), C12orf56 (ProbeSet 11735607_a_at) / Fold change (ACY-1035/veh), C12orf56 (ProbeSet 11735607_a_at) / Fold change (Aza/veh), FGFR1OP (ProbeSet 11751329_s_at) / Fold change (ACY-1035/veh), FGFR1OP (ProbeSet 11751329_s_at) / Fold change (Aza/veh), VPS36 (ProbeSet 11739960_a_at) / Fold change (ACY-1035/veh), VPS36 (ProbeSet 11739960_a_at) / RFU SYPL1 (11715823_x_at) / Fold change /veh SYPL1 (11715823_x_at) / RFU IGFBP7 (11715501_s_at) / Fold change /veh IGFBP7 (11715501_s_at) / RFU REEP3 (11722064_at) / Fold change /veh REEP3 (11722064_at) / RFU IGLL1 (11728026_x_at) / Fold change /veh IGLL1 (11728026_x_at): dose or concentration left out as unconfirmed. Particulars: ProbeSet 11726703_a_at; LIST B. The test is classed as cell-based, human.

In the case of `Nc1ncn([C@@H]2O[C@H](CO)[C@@H](O)[C@H]2O)c(=O)n1` [azacitidine], the “Fold change vs veh, BCL10” value is listed as 0.88.
